Laboratory results as given in PubChem BioAssay AID248 (DTP/NCI, 2004).
Toxic doses and inconclusive results are not listed. Cut-off read from the data, not from the text of the source: active = T/C of 150% or more; inactive = T/C below 125%.

System: L1210 leukemia ip in BDF1 mice, survival T/C
Assay: NCI In Vivo Anticancer Drug Screen. Data for tumor model L1210 Leukemia (intraperitoneal) in B6D2F1 (BDF1) mice
Settings: endpoint: mean survival time, higher = longer survival
Procedure, shortened: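 In this screen, tumor-bearing mice given compound are compared to those given vehicle, and their survival values are reported as a treated-to-control quotient.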

[1] = dose: 50.0 mg/kg/injection, schedule: Q01DX009 (ip), vehicle: saline with Tween-80
[2] = dose: 100.0 mg/kg/injection, schedule: Q01DX009 (ip), vehicle: Klucel (hydroxypropylcellulose) (HPC)
[3] = dose: 100.0 mg/kg/injection, schedule: Q01DX009 (ip), vehicle: saline with Tween-80
[4] = dose: 200.0 mg/kg/injection, schedule: Q01DX009 (ip), vehicle: Klucel (hydroxypropylcellulose) (HPC)
[5] = dose: 200.0 mg/kg/injection, schedule: Q01DX009 (ip), vehicle: saline with Tween-80
[6] = dose: 100.0 mg/kg/injection, schedule: Q04DX003 (ip), vehicle: saline with Tween-80
[7] = dose: 200.0 mg/kg/injection, schedule: Q04DX003 (ip), vehicle: saline with Tween-80
[8] = dose: 400.0 mg/kg/injection, schedule: Q01DX009 (ip), vehicle: saline with Tween-80
[9] = dose: 400.0 mg/kg/injection, schedule: Q04DX003 (ip), vehicle: saline with Tween-80
[10] = dose: 100.0 mg/kg/injection, schedule: Q01DX001 (ip), vehicle: saline with Tween-80
[11] = dose: 100.0 mg/kg/injection, schedule: Q04DX003 (ip), vehicle: saline
[12] = dose: 400.0 mg/kg/injection, schedule: Q01DX009 (ip), vehicle: Klucel (hydroxypropylcellulose) (HPC)
[13] = dose: 50.0 mg/kg/injection, schedule: Q04DX003 (ip), vehicle: saline with Tween-80

Measured: T/C

Cc1cc(=O)n(C)c2ccccc12
inactive: [1] 97 % of control | dose: 100.0 mg/kg/injection, schedule: Q01DX001 (ip), vehicle: carboxymethylcellulose (CMC) 93 % of control | [2] 104 % of control | [3] 101 % of control | dose: 200.0 mg/kg/injection, schedule: Q01DX001 (ip), vehicle: carboxymethylcellulose (CMC) 93 % of control | [4] 93 % of control | [5] 94 % of control

CC(=O)OC(C)(C)/C=C/C(=O)[C@](C)(O)[C@H]1[C@H](O)C[C@@]2(C)[C@@H]3CC=C4[C@@H](CC[C@H](O)C4(C)C)[C@]3(CO)C(=O)C[C@]12C
inactive: dose: 0.57 mg/kg/injection, schedule: Q01DX Z (ip), vehicle: saline 106 % of control | dose: 0.86 mg/kg/injection, schedule: Q01DX Z (ip), vehicle: saline 106 % of control | dose: 1.3 mg/kg/injection, schedule: Q01DX Z (ip), vehicle: saline 112 % of control

Cc1cc([N+](=O)[O-])c2ccccc2c1N(CC(=O)O)S(=O)(=O)c1ccccc1
inactive: [3] 93 % of control | [6] 90 % of control | [5] 99 % of control | [7] 97 % of control | [8] 104 % of control | [9] 89 % of control

CCCCN(CCCC)CCNc1cc(C)nc(/N=C(\N)Nc2ccc(Cl)c(Cl)c2)n1
inactive: dose: 38.0 mg/kg/injection, schedule: Q01DX009 (ip), vehicle: other 91 % of control | dose: 38.0 mg/kg/injection, schedule: Q04DX003 (ip), vehicle: other 104 % of control | dose: 75.0 mg/kg/injection, schedule: Q01DX001 (ip), vehicle: other 101 % of control | dose: 75.0 mg/kg/injection, schedule: Q01DX009 (ip), vehicle: other 105 % of control | dose: 75.0 mg/kg/injection, schedule: Q04DX003 (ip), vehicle: other 114 % of control | dose: 150.0 mg/kg/injection, schedule: Q01DX001 (ip), vehicle: other 103 % of control | dose: 150.0 mg/kg/injection, schedule: Q04DX003 (ip), vehicle: other 87 % of control | dose: 300.0 mg/kg/injection, schedule: Q01DX001 (ip), vehicle: other 95 % of control

O=S1(=O)CCC(O)C1 (stereo not drawn)
inactive: dose: 100.0 mg/kg/injection, schedule: Q01DX001 (ip), vehicle: saline 92 % of control | dose: 100.0 mg/kg/injection, schedule: Q01DX009 (ip), vehicle: saline 93 % of control | dose: 200.0 mg/kg/injection, schedule: Q01DX001 (ip), vehicle: saline 97 % of control | dose: 200.0 mg/kg/injection, schedule: Q01DX009 (ip), vehicle: saline 105 % of control | dose: 400.0 mg/kg/injection, schedule: Q01DX001 (ip), vehicle: saline 100 % of control | dose: 400.0 mg/kg/injection, schedule: Q01DX009 (ip), vehicle: saline 100 % of control

CC(C)=C(Br)CC[C@@H](C)[C@H]1CC[C@@]2(C)C3=C(CC[C@]12C)[C@@]1(C)CC[C@H](O)C(C)(C)[C@@H]1CC3
inactive: dose: 62.0 mg/kg/injection, schedule: Q01DX Z (sc), vehicle: steriod suspending solution 102 % of control | dose: 125.0 mg/kg/injection, schedule: Q01DX Z (sc), vehicle: steriod suspending solution 95 % of control | dose: 250.0 mg/kg/injection, schedule: Q01DX Z (sc), vehicle: steriod suspending solution 95 % of control | dose: 500.0 mg/kg/injection, schedule: Q01DX Z (sc), vehicle: steriod suspending solution 95 % of control

CCCOC(=O)C1OC12CCCCC2 (stereo not drawn)
inactive: [3] 103 % of control | [5] 100 % of control | [8] 103 % of control

CC(C)(C)OC(=O)N1CCCC1C(=O)Oc1ccc([N+](=O)[O-])cc1 (stereo not drawn)
inactive: dose: 25.0 mg/kg/injection, schedule: Q01DX009 (ip), vehicle: saline with Tween-80 102 % of control | [1] 88 % of control | [3] 93 % of control

Nc1nc(N)c2nc(CNc3ccccc3)cnc2n1
inactive: dose: 20.0 mg/kg/injection, schedule: Q01DX009 (ip), vehicle: Klucel (hydroxypropylcellulose) (HPC) 96 % of control | dose: 40.0 mg/kg/injection, schedule: Q01DX009 (ip), vehicle: Klucel (hydroxypropylcellulose) (HPC) 105 % of control | dose: 80.0 mg/kg/injection, schedule: Q01DX009 (ip), vehicle: Klucel (hydroxypropylcellulose) (HPC) 96 % of control

CN(C)CCCNCC(=O)Nc1ccc(S(=O)(=O)c2ccc([N+](=O)[O-])cc2)cc1
inactive: dose: 75.0 mg/kg/injection, schedule: Q01DX001 (ip), vehicle: saline 104 % of control | dose: 150.0 mg/kg/injection, schedule: Q01DX001 (ip), vehicle: saline 104 % of control

CCC(C(=O)Cl)c1ccc(-c2ccccc2)cc1 (stereo not drawn)
inactive: dose: 50.0 mg/kg/injection, schedule: Q01DX001 (ip), vehicle: saline with Tween-80 96 % of control | [10] 96 % of control | dose: 200.0 mg/kg/injection, schedule: Q01DX001 (ip), vehicle: saline with Tween-80 96 % of control

COc1cc(OC)cc(C2N(Cc3ccc(OC)c(OC)c3)CCN2Cc2ccc(OC)c(OC)c2)c1
inactive: [3] 100 % of control | [6] 104 % of control | [5] 108 % of control | [7] 100 % of control | [8] 101 % of control | [9] 98 % of control

O=C(Nc1cccc(C(F)(F)F)c1)c1ccc(C(=O)Nc2cccc(C(F)(F)F)c2)cc1
inactive: [6] 95 % of control | [7] 90 % of control | [8] 96 % of control | [9] 95 % of control

O=[N+]([O-])c1cccnc1Oc1cccc(C(F)(F)F)c1
inactive: [11] 100 % of control | dose: 200.0 mg/kg/injection, schedule: Q04DX003 (ip), vehicle: saline 105 % of control | dose: 400.0 mg/kg/injection, schedule: Q04DX003 (ip), vehicle: saline 104 % of control

CC(=O)c1cccc(NC(=O)OCC2CC3C=CC2C3)c1 (stereo not drawn)
inactive: [2] 112 % of control | [4] 104 % of control | [12] 103 % of control

CC(=O)CC(Cl)(C(F)(F)F)C(F)(F)F
inactive: [13] 100 % of control | [6] 100 % of control | [7] 86 % of control | [9] 88 % of control

COC(=O)NC1CC(OC(=O)c2ccc(C)cc2)C(COC(=O)c2ccc(C)cc2)O1 (stereo not drawn)
inactive: [13] 96 % of control | dose: 66.0 mg/kg/injection, schedule: Q04DX003 (ip), vehicle: saline 94 % of control | [6] 97 % of control | [11] 100 % of control | dose: 150.0 mg/kg/injection, schedule: Q04DX003 (ip), vehicle: saline 95 % of control | [7] 100 % of control | dose: 225.0 mg/kg/injection, schedule: Q04DX003 (ip), vehicle: saline 95 % of control | dose: 337.0 mg/kg/injection, schedule: Q04DX003 (ip), vehicle: saline 103 % of control | [9] 96 % of control

Clc1ccc(CI)cc1
inactive: dose: 25.0 mg/kg/injection, schedule: Q04DX003 (ip), vehicle: alcohol 106 % of control | dose: 50.0 mg/kg/injection, schedule: Q04DX003 (ip), vehicle: alcohol 98 % of control | dose: 100.0 mg/kg/injection, schedule: Q04DX003 (ip), vehicle: alcohol 98 % of control

CCOC(=O)C1CCCC23CC(CC12)C(C)(C)C3Br (stereo not drawn)
inactive: [2] 100 % of control | dose: 100.0 mg/kg/injection, schedule: Q04DX003 (ip), vehicle: Klucel (hydroxypropylcellulose) (HPC) 94 % of control | [4] 94 % of control | dose: 200.0 mg/kg/injection, schedule: Q04DX003 (ip), vehicle: Klucel (hydroxypropylcellulose) (HPC) 95 % of control | [12] 94 % of control | dose: 400.0 mg/kg/injection, schedule: Q04DX003 (ip), vehicle: Klucel (hydroxypropylcellulose) (HPC) 103 % of control

OC1(c2ccccc2)c2cscc2C(O)(c2ccccc2)c2c(Cl)sc(Cl)c21 (stereo not drawn)
inactive: [10] 91 % of control | dose: 400.0 mg/kg/injection, schedule: Q01DX001 (ip), vehicle: saline with Tween-80 87 % of control
